Source: ChEMBL document CHEMBL4507294, “Data for DCP probe MSD-CYP11B2” (2021)

Key:
[1] = molecular target: Tyrosine-protein kinase ABL1 (Homo sapiens) (UniProt P00519); conditions: Compound concentration 1000.0 nM
[2] = molecular target: Casein kinase I isoform gamma-3 (Homo sapiens) (UniProt Q9Y6M4); conditions: Compound concentration 1000.0 nM
[3] = molecular target: Rhodopsin kinase GRK7 (Homo sapiens) (UniProt Q8WTQ7); conditions: Compound concentration 1000.0 nM
[4] = molecular target: Beta-3 adrenergic receptor (Homo sapiens) (UniProt P13945); conditions: Compound concentration 10.0 uM
Beta-3 adrenergic receptor (Homo sapiens), sequence (P13945 whole entry, looked up): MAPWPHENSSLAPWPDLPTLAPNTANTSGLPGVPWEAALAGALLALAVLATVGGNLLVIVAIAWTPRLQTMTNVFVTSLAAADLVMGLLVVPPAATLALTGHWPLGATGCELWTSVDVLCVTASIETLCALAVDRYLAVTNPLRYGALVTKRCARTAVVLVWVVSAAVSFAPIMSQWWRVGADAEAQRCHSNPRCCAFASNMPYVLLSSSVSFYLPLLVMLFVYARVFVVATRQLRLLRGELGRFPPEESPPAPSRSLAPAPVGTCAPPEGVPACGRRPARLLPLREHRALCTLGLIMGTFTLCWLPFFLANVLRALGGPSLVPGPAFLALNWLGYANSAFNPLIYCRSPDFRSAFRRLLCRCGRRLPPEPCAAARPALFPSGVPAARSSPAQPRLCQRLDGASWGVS

[5] = molecular target: Mitogen-activated protein kinase kinase kinase 2 (Homo sapiens) (UniProt Q9Y2U5); conditions: Compound concentration 1000.0 nM
Mitogen-activated protein kinase kinase kinase 2 (Homo sapiens), sequence (Q9Y2U5 whole entry): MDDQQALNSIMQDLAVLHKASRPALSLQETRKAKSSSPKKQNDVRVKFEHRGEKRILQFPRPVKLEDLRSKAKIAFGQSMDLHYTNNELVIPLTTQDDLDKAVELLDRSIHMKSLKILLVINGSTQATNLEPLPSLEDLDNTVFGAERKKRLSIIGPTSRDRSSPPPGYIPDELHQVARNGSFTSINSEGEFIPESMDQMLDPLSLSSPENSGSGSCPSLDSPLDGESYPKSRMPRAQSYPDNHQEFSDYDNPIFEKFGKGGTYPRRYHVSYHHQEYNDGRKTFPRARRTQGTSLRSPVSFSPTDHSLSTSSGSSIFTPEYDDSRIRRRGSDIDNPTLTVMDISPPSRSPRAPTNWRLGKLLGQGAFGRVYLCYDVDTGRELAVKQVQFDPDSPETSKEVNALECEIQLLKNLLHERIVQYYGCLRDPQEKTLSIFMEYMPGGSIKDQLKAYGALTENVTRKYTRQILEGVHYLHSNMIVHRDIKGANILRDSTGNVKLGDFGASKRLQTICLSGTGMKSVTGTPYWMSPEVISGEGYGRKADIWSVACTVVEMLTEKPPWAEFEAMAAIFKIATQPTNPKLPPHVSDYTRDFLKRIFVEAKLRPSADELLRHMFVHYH

[6] = molecular target: 5-hydroxytryptamine receptor 2B (Homo sapiens, UniProt P41595); test: GPCRScan assay: inhibition of 5-HT2B; design: radioligand conc. used [nm] 1.0 – 2.0, parental cells stable HEK
5-hydroxytryptamine receptor 2B, sequence (P41595 whole entry): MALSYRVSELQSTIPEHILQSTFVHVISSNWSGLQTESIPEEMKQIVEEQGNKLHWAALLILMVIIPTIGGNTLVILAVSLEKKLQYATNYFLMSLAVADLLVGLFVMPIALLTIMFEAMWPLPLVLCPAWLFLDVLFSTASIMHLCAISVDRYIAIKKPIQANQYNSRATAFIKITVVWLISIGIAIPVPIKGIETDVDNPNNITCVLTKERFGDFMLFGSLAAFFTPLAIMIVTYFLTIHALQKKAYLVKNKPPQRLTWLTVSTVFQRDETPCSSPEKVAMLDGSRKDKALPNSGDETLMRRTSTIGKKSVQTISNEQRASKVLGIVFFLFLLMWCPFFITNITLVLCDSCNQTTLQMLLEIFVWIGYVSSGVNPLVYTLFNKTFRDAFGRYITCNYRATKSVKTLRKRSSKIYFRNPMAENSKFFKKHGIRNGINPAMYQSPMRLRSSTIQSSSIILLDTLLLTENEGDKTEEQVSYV

[7] = tested on: Serine/threonine-protein kinase B-raf (Homo sapiens), P15056 [V600E]; conditions: Compound concentration 1000.0 nM
[8] = molecular target: Serine/threonine-protein kinase VRK2 (Homo sapiens) (UniProt Q86Y07); conditions: Compound concentration 1000.0 nM
[9] = tested on: Phosphatidylinositol 4,5-bisphosphate 3-kinase catalytic subunit alpha isoform (Homo sapiens), P42336 [H1047L]; conditions: Compound concentration 1000.0 nM
[10] = molecular target: Cyclin-dependent kinase 3 (Homo sapiens) (UniProt Q00526); conditions: Compound concentration 1000.0 nM
Cyclin-dependent kinase 3 (Homo sapiens), sequence (Q00526 whole entry, looked up): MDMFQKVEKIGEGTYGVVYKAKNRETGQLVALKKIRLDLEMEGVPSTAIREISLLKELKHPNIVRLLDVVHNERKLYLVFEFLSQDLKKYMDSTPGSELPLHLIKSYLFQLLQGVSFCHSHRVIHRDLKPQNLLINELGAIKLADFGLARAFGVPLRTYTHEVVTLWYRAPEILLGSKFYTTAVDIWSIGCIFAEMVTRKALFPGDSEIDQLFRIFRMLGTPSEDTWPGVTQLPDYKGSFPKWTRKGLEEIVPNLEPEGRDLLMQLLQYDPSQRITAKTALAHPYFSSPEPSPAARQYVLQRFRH

[11] = molecular target: Cyclin-dependent kinase 13 (Homo sapiens) (UniProt Q14004); conditions: Compound concentration 1000.0 nM
[12] = molecular target: Serine/threonine-protein kinase 32B (Homo sapiens) (UniProt Q9NY57); conditions: Compound concentration 1000.0 nM
Serine/threonine-protein kinase 32B (Homo sapiens), sequence (Q9NY57 whole entry): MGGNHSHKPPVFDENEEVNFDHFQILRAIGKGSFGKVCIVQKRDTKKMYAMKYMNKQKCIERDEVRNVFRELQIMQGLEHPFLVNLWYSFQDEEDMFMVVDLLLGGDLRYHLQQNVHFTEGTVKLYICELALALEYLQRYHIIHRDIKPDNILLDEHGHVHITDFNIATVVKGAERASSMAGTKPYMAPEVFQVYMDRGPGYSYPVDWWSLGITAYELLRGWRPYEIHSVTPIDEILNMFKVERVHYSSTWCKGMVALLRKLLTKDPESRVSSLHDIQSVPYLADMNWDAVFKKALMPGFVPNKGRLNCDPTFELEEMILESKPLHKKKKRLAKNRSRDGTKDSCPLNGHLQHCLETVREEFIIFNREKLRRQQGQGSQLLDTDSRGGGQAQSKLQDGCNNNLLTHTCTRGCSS

[13] = molecular target: 5-hydroxytryptamine receptor 7 (Homo sapiens) (UniProt P34969); conditions: Compound concentration 10.0 uM
[14] = molecular target: Tyrosine-protein kinase Lyn (Homo sapiens) (UniProt P07948); conditions: Compound concentration 1000.0 nM
[15] = molecular target: Serine/threonine-protein kinase MRCK alpha (Homo sapiens) (UniProt Q5VT25); conditions: Compound concentration 1000.0 nM
[16] = molecular target: Serine/threonine-protein kinase PAK 2 (Homo sapiens) (UniProt Q13177); conditions: Compound concentration 1000.0 nM
[17] = molecular target: 5-hydroxytryptamine receptor 2A (Homo sapiens) (UniProt P28223); conditions: Compound concentration 10.0 uM
5-hydroxytryptamine receptor 2A (Homo sapiens), sequence (P28223 whole entry): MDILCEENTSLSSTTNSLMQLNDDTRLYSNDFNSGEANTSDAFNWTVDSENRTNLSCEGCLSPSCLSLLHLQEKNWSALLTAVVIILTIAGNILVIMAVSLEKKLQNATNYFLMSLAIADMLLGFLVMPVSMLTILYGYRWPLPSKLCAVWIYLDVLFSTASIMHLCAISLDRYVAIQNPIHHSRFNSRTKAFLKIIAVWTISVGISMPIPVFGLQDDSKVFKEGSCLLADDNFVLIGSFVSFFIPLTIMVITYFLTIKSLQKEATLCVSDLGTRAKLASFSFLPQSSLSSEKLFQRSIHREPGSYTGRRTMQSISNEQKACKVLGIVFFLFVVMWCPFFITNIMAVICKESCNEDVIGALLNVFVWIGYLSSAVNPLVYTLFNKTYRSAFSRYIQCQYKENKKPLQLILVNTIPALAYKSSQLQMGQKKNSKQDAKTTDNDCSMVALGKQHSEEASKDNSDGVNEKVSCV

[18] = molecular target: Serine/threonine-protein kinase PRP4 homolog (Homo sapiens) (UniProt Q13523); conditions: Compound concentration 1000.0 nM
[19] = tested on: Tyrosine-protein kinase ABL1 (Homo sapiens), P00519 [F317I]; conditions: Compound concentration 1000.0 nM
[20] = molecular target: Mitogen-activated protein kinase kinase kinase kinase 3 (Homo sapiens) (UniProt Q8IVH8); conditions: Compound concentration 1000.0 nM
[21] = molecular target: Proto-oncogene tyrosine-protein kinase receptor Ret (Homo sapiens) (UniProt P07949); conditions: Compound concentration 1000.0 nM
[22] = tested on: Hepatocyte growth factor receptor (Homo sapiens), P08581 [M1250T]; conditions: Compound concentration 1000.0 nM
[23] = molecular target: Serine/threonine-protein kinase 32A (Homo sapiens) (UniProt Q8WU08); conditions: Compound concentration 1000.0 nM
[24] = molecular target: Non-receptor tyrosine-protein kinase TYK2 (Homo sapiens) (UniProt P29597); conditions: Compound concentration 1000.0 nM
[25] = molecular target: RAF proto-oncogene serine/threonine-protein kinase (Homo sapiens) (UniProt P04049); conditions: Compound concentration 1000.0 nM
[26] = tested on: Tyrosine-protein kinase ABL1 (Homo sapiens), P00519 [H396P]; conditions: Compound concentration 1000.0 nM
[27] = molecular target: Serine/threonine-protein kinase 36 (Homo sapiens) (UniProt Q9NRP7); conditions: Compound concentration 1000.0 nM
Serine/threonine-protein kinase 36 (Homo sapiens), sequence (Q9NRP7 whole entry): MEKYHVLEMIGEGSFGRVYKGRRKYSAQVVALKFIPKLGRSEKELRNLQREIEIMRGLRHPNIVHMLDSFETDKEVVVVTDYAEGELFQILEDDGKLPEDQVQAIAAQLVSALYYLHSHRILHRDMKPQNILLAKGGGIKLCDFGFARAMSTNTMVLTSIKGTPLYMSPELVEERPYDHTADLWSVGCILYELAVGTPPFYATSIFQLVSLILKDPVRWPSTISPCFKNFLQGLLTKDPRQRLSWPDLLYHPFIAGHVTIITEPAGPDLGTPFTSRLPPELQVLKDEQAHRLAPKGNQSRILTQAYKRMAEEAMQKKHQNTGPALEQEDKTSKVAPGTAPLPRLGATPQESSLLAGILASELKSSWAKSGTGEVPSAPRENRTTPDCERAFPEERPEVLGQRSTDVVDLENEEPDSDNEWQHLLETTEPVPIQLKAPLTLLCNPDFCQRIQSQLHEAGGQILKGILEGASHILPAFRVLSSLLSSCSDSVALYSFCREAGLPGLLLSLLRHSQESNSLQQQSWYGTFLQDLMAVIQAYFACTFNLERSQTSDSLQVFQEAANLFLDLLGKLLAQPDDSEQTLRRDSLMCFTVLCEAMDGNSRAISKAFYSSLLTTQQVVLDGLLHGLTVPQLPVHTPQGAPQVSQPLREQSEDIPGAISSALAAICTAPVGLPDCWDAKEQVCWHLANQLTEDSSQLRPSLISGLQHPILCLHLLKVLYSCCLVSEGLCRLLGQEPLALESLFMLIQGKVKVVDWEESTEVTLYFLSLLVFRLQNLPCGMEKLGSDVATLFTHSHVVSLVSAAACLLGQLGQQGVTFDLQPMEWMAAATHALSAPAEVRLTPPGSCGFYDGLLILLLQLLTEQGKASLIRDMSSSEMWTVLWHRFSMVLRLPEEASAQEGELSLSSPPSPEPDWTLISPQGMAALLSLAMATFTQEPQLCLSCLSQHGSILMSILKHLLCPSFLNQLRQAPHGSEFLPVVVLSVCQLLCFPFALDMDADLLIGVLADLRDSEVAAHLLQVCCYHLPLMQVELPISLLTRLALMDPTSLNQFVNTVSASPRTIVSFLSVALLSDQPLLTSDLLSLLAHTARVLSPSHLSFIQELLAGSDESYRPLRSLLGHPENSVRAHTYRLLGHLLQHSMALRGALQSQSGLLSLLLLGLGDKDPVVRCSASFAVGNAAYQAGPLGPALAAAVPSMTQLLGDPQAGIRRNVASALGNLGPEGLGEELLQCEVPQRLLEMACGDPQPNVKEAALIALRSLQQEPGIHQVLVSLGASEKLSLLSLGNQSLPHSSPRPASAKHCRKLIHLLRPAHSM

[28] = molecular target: Inhibitor of nuclear factor kappa-B kinase subunit epsilon (Homo sapiens) (UniProt Q14164); conditions: Compound concentration 1000.0 nM
[29] = molecular target: Serine/threonine-protein kinase 10 (Homo sapiens) (UniProt O94804); conditions: Compound concentration 1000.0 nM
[30] = molecular target: T1, 5-hydroxytryptamine receptor 3A (Homo sapiens) (UniProt P46098); conditions: Compound concentration 10.0 uM
T1 sequence (whole entry): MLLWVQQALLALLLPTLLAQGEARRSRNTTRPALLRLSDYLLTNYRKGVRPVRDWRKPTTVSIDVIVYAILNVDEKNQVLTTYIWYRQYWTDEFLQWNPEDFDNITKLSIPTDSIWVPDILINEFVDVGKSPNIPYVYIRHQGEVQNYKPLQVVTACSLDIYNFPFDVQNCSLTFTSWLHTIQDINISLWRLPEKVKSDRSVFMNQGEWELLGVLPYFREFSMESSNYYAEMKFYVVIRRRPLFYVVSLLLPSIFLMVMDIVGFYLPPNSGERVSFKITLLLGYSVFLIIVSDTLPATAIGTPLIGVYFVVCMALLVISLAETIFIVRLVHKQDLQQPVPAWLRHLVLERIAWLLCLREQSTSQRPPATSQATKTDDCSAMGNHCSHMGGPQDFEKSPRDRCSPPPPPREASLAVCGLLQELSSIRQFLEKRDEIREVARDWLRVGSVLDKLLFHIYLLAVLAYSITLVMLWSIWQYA

[31] = molecular target: Protein kinase C eta type (Homo sapiens) (UniProt P24723); conditions: Compound concentration 1000.0 nM
[32] = molecular target: Muscle, skeletal receptor tyrosine-protein kinase (Homo sapiens) (UniProt O15146); conditions: Compound concentration 1000.0 nM
[33] = molecular target: Serine/threonine-protein kinase PAK 1 (Homo sapiens) (UniProt Q13153); conditions: Compound concentration 1000.0 nM
Serine/threonine-protein kinase PAK 1 (Homo sapiens), sequence (Q13153 whole entry): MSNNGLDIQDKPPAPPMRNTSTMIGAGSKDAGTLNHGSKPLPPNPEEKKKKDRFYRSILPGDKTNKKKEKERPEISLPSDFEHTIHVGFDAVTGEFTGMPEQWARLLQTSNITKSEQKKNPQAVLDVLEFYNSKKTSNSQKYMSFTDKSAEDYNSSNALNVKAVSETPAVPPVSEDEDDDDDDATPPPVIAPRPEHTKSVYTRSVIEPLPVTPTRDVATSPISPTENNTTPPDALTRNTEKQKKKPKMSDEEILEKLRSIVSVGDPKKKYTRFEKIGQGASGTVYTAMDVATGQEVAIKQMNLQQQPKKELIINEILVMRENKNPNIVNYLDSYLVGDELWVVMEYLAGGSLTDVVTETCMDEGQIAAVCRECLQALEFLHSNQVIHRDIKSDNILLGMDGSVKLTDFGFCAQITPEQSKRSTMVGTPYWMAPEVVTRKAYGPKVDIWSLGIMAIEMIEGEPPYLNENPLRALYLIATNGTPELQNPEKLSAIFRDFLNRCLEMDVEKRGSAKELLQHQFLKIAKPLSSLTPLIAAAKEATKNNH

[34] = molecular target: STE20/SPS1-related proline-alanine-rich protein kinase (Homo sapiens) (UniProt Q9UEW8); conditions: Compound concentration 1000.0 nM
[35] = tested on: Proto-oncogene tyrosine-protein kinase receptor Ret (Homo sapiens), P07949 [V804L]; conditions: Compound concentration 1000.0 nM
[36] = molecular target: Epithelial discoidin domain-containing receptor 1 (Homo sapiens) (UniProt Q08345); conditions: Compound concentration 1000.0 nM
[37] = molecular target: Dual specificity mitogen-activated protein kinase kinase 3 (Homo sapiens) (UniProt P46734); conditions: Compound concentration 1000.0 nM
Dual specificity mitogen-activated protein kinase kinase 3 (Homo sapiens), sequence (P46734 whole entry): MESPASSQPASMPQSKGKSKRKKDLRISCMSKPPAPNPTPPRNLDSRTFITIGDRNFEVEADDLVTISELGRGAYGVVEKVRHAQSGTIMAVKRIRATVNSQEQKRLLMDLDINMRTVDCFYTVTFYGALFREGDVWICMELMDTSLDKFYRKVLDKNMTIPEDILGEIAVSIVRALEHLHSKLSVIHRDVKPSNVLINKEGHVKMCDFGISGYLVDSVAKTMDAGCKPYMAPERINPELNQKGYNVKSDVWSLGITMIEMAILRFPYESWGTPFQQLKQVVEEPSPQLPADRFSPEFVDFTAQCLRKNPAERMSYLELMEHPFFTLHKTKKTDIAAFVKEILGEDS

[38] = molecular target: Serine/threonine-protein kinase pim-3 (Homo sapiens) (UniProt Q86V86); conditions: Compound concentration 1000.0 nM

| SMILES | residual activity [1] [%] | residual activity [2] [%] | residual activity [3] [%] | inhibition [4] [%] | residual activity [5] [%] | Ki [6] [nM] | residual activity [7] [%] | residual activity [8] [%] | residual activity [9] [%] | residual activity [10] [%] | residual activity [11] [%] | residual activity [12] [%] | inhibition [13] [%] | residual activity [14] [%] | residual activity [15] [%] | residual activity [16] [%] | inhibition [17] [%] | residual activity [18] [%] | residual activity [19] [%] | residual activity [20] [%] | other results |
| --- | --- | --- | --- | --- | --- | --- | --- | --- | --- | --- | --- | --- | --- | --- | --- | --- | --- | --- | --- | --- | --- |
| FC(F)(F)c1ccc2c(c1)nc(-c1cccnc1)n2C1CC1 [MSD-CYP11B2-Negative-control] | 97 | 100 | 81 | -1.88 | 100 | 1070 | 100 | 100 | 100 | 100 | 100 | 100 | 0.88 | 82 | 100 | 100 | 4.15 | 98 | 100 | 100 | residual activity [21]: 99%; residual activity [22]: 100%; residual activity [23]: 89%; residual activity [24]: 100%; residual activity [25]: 76%; residual activity [26]: 82%; residual activity [27]: 84%; residual activity [28]: 100%; residual activity [29]: 100%; inhibition [30]: -8.72%; residual activity [31]: 100%; residual activity [32]: 100%; residual activity [33]: 100%; residual activity [34]: 100%; residual activity [35]: 81%; residual activity [36]: 100%; residual activity [37]: 100%; residual activity [38]: 100% |
| CC(C)(O)c1cncc(-c2nc3ccc(F)cc3n2C2CC2)c1 [MSD-CYP11B2] | 98 | 100 | 86 | 16.7 | 100 | 1540 | 98 | 100 | 97 | 100 | 96 | 97 | -2.18 | 100 | 100 | 100 | -0.31 | 58 | 100 | 100 | residual activity [21]: 100%; residual activity [22]: 100%; residual activity [23]: 100%; residual activity [24]: 94%; residual activity [25]: 83%; residual activity [26]: 85%; residual activity [27]: 93%; residual activity [28]: 100%; residual activity [29]: 100%; inhibition [30]: -6.88%; residual activity [31]: 98%; residual activity [32]: 100%; residual activity [33]: 100%; residual activity [34]: 100%; residual activity [35]: 100%; residual activity [36]: 100%; residual activity [37]: 100%; residual activity [38]: 98% |
